Measured values from the supplement of paper PMC10307832.

Columns and labels:
Assay in all cases: relative viability (nuclei count vs DMSO), 5 days (fraction); higher = more cells survive
[1] = compound: C=CC(=O)N1CCC[C@@H](n2nc(-c3ccc(Oc4ccccc4)cc3)c3c(N)ncnc32)C1 [Ibrutinib] + COc1cc2c(Oc3ccc(NC(=O)C4(C(=O)Nc5ccc(F)cc5)CC4)cc3F)ccnc2cc1OCCCN1CCOCC1 [Foretinib] (partner 0.25 µM)
Procedure, shortened: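 Values are medians from duplicate plates. Each reflects relative viability, defined as the nuclei count of treated wells over that of vehicle wells. Lung cancer cell lines in 1536-well plates were pin-tool dosed one day after seeding with one drug alone or with a fixed anchor-drug dose plus five library-drug doses (not always all listed) in √10 steps, then fixed, stained and imaged at 4× after 5 days.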

[2] = compound: C=CCc1cccc(/C=N/NC(=O)CN2CCN(Cc3ccccc3)CC2)c1O [PAC-1]
Procedure, shortened: (§1)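 Viability was read as treated-well nuclei divided by vehicle-well nuclei, using the median across plates. Lung cancer cell lines in 1536-well plates were kept overnight at 37 °C, pinned with five √10-spaced library-drug doses, and after 5 days were Hoechst-stained, imaged at 4× and counted in MetaXpress. Plates passed only with control CV below 25% and at least one doubling.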

[3] = compound: C=CC(=O)N1CCC[C@@H](n2nc(-c3ccc(Oc4ccccc4)cc3)c3c(N)ncnc32)C1 [Ibrutinib]
Procedure, shortened: as §1

[4] = compound: C=CC(=O)Nc1cc(-n2c(=O)ccc3cnc4ccc(-c5ccc(NS(C)(=O)=O)cc5)cc4c32)ccc1C [BMX-IN-1]
Procedure, shortened: as §1

Cell Line	relative viability ([1]; first compound 0.005 µM)	relative viability ([1]; first compound 0.01581 µM)	relative viability ([1]; first compound 0.1581 µM)	relative viability ([1]; first compound 0.5 µM)	relative viability ([2]; 0.02 µM)	relative viability ([2]; 0.06325 µM)	relative viability ([2]; 0.2 µM)	relative viability ([2]; 2 µM)	relative viability ([3]; 0.005 µM)	relative viability ([3]; 0.01581 µM)	relative viability ([3]; 0.05 µM)	relative viability ([3]; 0.1581 µM)	relative viability ([3]; 0.5 µM)	relative viability ([4]; 0.02 µM)	relative viability ([4]; 0.2 µM)	relative viability ([4]; 0.6325 µM)	relative viability ([4]; 2 µM)	relative viability ([1]; first compound 0.05 µM)
NCI-H460	1.06	0.909	1.01	0.992	0.979	0.966	0.934	1.07	1.07	0.922	0.979	0.917	1.02	1.24	1.09	1.04	1.07	–
NCI-H520	0.672	–	0.945	0.531	0.964	0.957	0.899	0.99	0.874	0.791	0.991	1	0.839	1.26	1.02	1.1	1.04	0.734
NCI-H596	–	0.808	0.793	0.567	1	0.937	1.07	1.05	0.74	0.965	0.939	0.837	0.858	1.12	0.951	1.02	0.96	0.803
NCI-H647	–	1.13	1.25	1.17	0.985	0.995	0.892	0.933	0.724	0.855	0.86	0.876	0.879	1.32	1.07	0.957	0.96	1.23
NCI-H650	1.07	0.94	1.25	1.17	0.976	0.966	0.891	0.872	0.772	0.991	0.802	1.05	1.01	0.905	1.01	1.02	0.951	1.09
NCI-H661	1.06	0.839	0.984	0.616	0.977	0.981	0.965	0.959	0.95	0.957	0.868	0.96	0.601	0.967	1.03	1.01	0.933	0.842
NCI-H727	0.911	0.785	–	0.695	0.968	1.15	0.944	0.916	0.857	0.912	0.902	0.61	–	1	1.14	0.964	0.94	0.914
NCI-H838	0.929	0.985	1.01	1.02	0.96	0.989	0.9	0.983	0.923	0.893	0.986	0.938	0.948	1.25	0.957	1.02	0.989	1.07
NCI-H1299	0.557	1.07	1.09	1.11	1.03	0.979	1	1.01	1.02	1.01	1.05	1.01	1.05	1.09	1.08	1.07	1.06	1.14
NCI-H1355	0.863	0.88	0.981	0.793	0.983	1.02	0.968	1.06	–	0.975	1.02	0.826	0.843	1.03	1.06	1.11	1.12	0.848
NCI-H1395	0.913	0.922	0.982	0.907	1.02	0.928	0.872	0.911	0.763	1.04	0.855	0.713	0.957	1.01	0.951	0.97	0.892	1.02
NCI-H1437	1.33	1.19	1.28	1.27	0.988	1.01	0.96	0.814	0.957	0.975	0.981	0.974	1.02	1.11	0.984	1.03	1.03	1.26
NCI-H1563	0.985	0.92	0.998	0.88	0.953	1.03	1.04	0.94	0.922	0.893	1	0.977	0.861	0.955	0.943	1.04	0.964	0.935
NCI-H1623	0.8	0.701	0.692	0.289	0.966	0.891	0.95	0.926	0.894	0.842	0.672	0.858	0.299	0.995	1.01	0.988	0.882	0.568
NCI-H1650	1.01	0.793	–	0.732	0.916	0.916	0.856	0.81	0.793	0.841	0.76	0.79	0.706	1	0.896	1.01	0.772	0.934
NCI-H1651	0.928	0.931	0.882	0.615	0.978	0.967	0.943	0.983	0.931	0.93	0.913	0.923	1.03	1.11	1.08	1.07	0.991	0.896
NCI-H1666	0.981	0.919	0.988	0.74	1.01	1.01	1	1.04	1.03	0.984	0.851	0.965	0.867	1.05	1.06	1.11	1.1	0.919
NCI-H1703	–	0.322	0.307	0.338	0.993	0.903	0.955	0.962	–	0.864	0.916	0.879	0.769	1.1	0.914	0.862	0.805	0.317

Cell Line	relative viability ([1]; first compound 0.005 µM)	relative viability ([1]; first compound 0.01581 µM)	relative viability ([1]; first compound 0.1581 µM)	relative viability ([1]; first compound 0.5 µM)	relative viability ([2]; 0.02 µM)	relative viability ([2]; 0.06325 µM)	relative viability ([2]; 0.2 µM)	relative viability ([2]; 2 µM)	relative viability ([3]; 0.005 µM)	relative viability ([3]; 0.01581 µM)	relative viability ([3]; 0.05 µM)	relative viability ([3]; 0.1581 µM)	relative viability ([3]; 0.5 µM)	relative viability ([4]; 0.02 µM)	relative viability ([4]; 0.2 µM)	relative viability ([4]; 0.6325 µM)	relative viability ([4]; 2 µM)	relative viability ([1]; first compound 0.05 µM)
NCI-H1734	0.827	0.822	0.895	0.718	0.936	1.01	0.942	1.02	0.849	0.922	0.952	1.03	0.999	1.06	1.06	1.11	1.02	0.965
NCI-H1755	0.929	0.925	1.02	0.855	1.02	0.958	0.963	0.995	0.988	1.03	1.02	0.994	0.969	1.01	1.1	1.08	0.984	0.951
NCI-H1793	–	0.566	0.545	0.416	0.847	0.934	0.872	1.01	–	0.831	0.732	0.631	0.538	1.13	0.995	1.13	1.05	0.552
NCI-H1915	1.12	1.07	1.15	1.09	0.955	0.981	0.934	1.07	0.96	0.971	1.01	0.978	1.05	1.08	1.06	1.07	1.08	1.11
NCI-H1944	0.891	0.734	0.879	0.605	0.964	0.947	0.902	1.02	0.887	0.851	0.858	0.772	0.832	1.07	1.08	1.18	0.947	0.72
NCI-H1975	0.973	0.891	0.96	0.544	0.97	0.957	0.994	1.08	0.906	0.781	0.827	0.91	0.419	1.17	0.965	1.14	0.872	0.819
NCI-H1993	0.74	0.72	0.783	0.62	0.911	0.986	0.891	0.963	0.617	0.822	–	0.733	0.61	1.01	1.09	0.973	0.882	0.759
NCI-H2009	1.31	1.21	1.19	1.26	0.978	1.03	0.94	0.99	1.14	0.971	0.978	0.962	1.09	1.08	1.07	1.09	1.02	1.14
NCI-H2023	0.747	0.721	0.975	0.459	0.973	0.919	0.905	1.01	0.89	0.849	0.891	1.03	0.943	1.37	1.19	1.13	1.08	0.562
NCI-H2085	0.916	0.628	1.1	0.625	1.05	1.02	0.989	0.98	0.997	0.974	0.902	0.882	0.905	1.03	0.997	1	1.01	0.941
NCI-H2087	1.18	1.21	–	1.24	0.872	1.06	0.929	1.04	1.13	0.931	1.19	–	0.99	1.03	1.14	1.14	1.15	1.09
NCI-H2126	–	1.03	1.25	1.02	0.938	0.948	1.02	1.06	0.68	0.969	0.972	0.9	0.887	1.09	1.05	1.08	1.02	1.24
NCI-H2170	1.06	0.858	1.01	0.377	1.02	0.978	0.99	0.962	0.678	0.85	0.803	0.939	0.462	1.14	1.05	1.05	1.02	0.951
NCI-H2228	0.845	–	0.892	0.609	0.98	1.15	0.924	1.09	1.01	0.752	1.1	0.872	0.868	1.2	1.18	0.975	1.05	0.915
NCI-H2342	0.9	1	1.12	0.801	1.09	0.91	0.872	1.15	0.655	0.875	0.888	0.842	0.823	1.04	1.03	1.06	0.939	0.812
NCI-H2347	–	0.811	–	0.725	1.01	1.02	0.979	1.05	1.01	1.06	1.02	0.812	1.04	1.04	0.967	1.14	1.09	0.8
NCI-H2405	1.11	1.07	1.06	–	1.04	1	1.01	1.09	0.924	–	0.832	0.713	0.973	0.982	1.01	1.09	1.04	1.08
NCI-H3122	1.02	0.984	0.938	1.04	0.991	0.989	0.965	0.965	1.05	0.989	0.996	0.895	1	1.07	1.06	1.04	1.04	1.04
